Each block holds one compound with its values, some of them ahead of it. Calls of active or inactive are those of the source. No cut-off for these calls is given here.
Experiments:
HCC1937 = assay: Antitumor activity against BRCA 1-deficient human HCC1937 cells incubated for 72 hrs by MTT assay; assay type: functional, cell-based; settings: HCC1937, 72 h
MDA-MB-436 = assay: Antitumor activity against BRCA 1-deficient human MDA-MB-436 cells incubated for 72 hrs by MTT assay; assay type: functional, cell-based; settings: MDA-MB-436, 72 h
MDA-MB-468 = assay: Antitumor activity against human MDA-MB-468 cells harboring wild-type BRCA incubated for 72 hrs by MTT assay; assay type: functional, cell-based; settings: MDA-MB-468, 72 h
[1] = Cytotoxicity against human MCF-10A cells incubated for 72 hrs by MTT assay; assay type: toxicity, cell-based
MDA-MB-231 [2] = assay: Antitumor activity against human MDA-MB-231 cells harboring wild-type BRCA incubated for 72 hrs by MTT assay; assay type: functional, cell-based; settings: MDA-MB-231, 72 h
[3] = Toxicity in BALB/c nude mouse xenografted with human MDA-MB-231 cells assessed as body weight change at 23 mg/kg, ip administered on every 2 days for 28 days; assay type: organism-based; settings: in vivo, 672 h, time 28 day
MDA-MB-231 [4] = assay: Effect on total MEK in human MDA-MB-231 cells at 5 uM incubated for 24 hrs by Western blot analysis; assay type: functional, cell-based
MDA-MB-231 [5] = assay: Induction of apoptosis in human MDA-MB-231 cells as increase in red fluorescence at 5 uM incubated for 24 hrs by Calcein AM/PI staining based confocal microscopy; assay type: functional, cell-based
MDA-MB-231 [6] = assay: Antitumor activity against human MDA-MB-231 cells xenografted in BALB/c nude mouse assessed as increase in apoptotic cells at 23 mg/kg, ip administered on every 2 days for 28 days in presence of Olaparib by H and E staining based analysis; assay type: functional, organism-based; settings: time 28.0 day
MDA-MB-231 [7] = assay: Induction of apoptosis in human MDA-MB-231 cells at 5 uM incubated for 24 hrs by Annexin V-FITC/PI staining based flow cytometry relative to control; assay type: functional
MDA-MB-231 [8] = assay: Antitumor activity against human MDA-MB-231 cells xenografted in BALB/c nude mouse assessed as decrease in Ki-67 expression at 23 mg/kg, ip administered on every 2 days for 28 days by H and E staining based analysis; assay type: functional, organism-based; settings: time 28.0 day
MDA-MB-231 [9] = assay: Effect on CRAF expression in human MDA-MB-231 cells at 5 uM incubated for 24 hrs by Western blot analysis; assay type: functional, cell-based
[10] = Toxicity in BALB/c nude mouse xenografted with human MDA-MB-231 cells assessed as drug tolerance at 23 mg/kg, ip administered on every 2 days for 28 days; assay type: organism-based; settings: in vivo, 672 h, time 28 day
MDA-MB-231 [11] = assay: Anti-migration activity in human MDA-MB-231 cells at 1 uM incubated for 24 hrs by wound healing assay; assay type: functional, cell-based
[12] = Toxicity in BALB/c nude mouse xenografted with human MDA-MB-231 cells assessed as body weight change at 23 mg/kg, ip administered on every 2 days for 28 days in presence of Olaparib; assay type: organism-based; settings: in vivo, 672 h, time 28 day
[13] = Toxicity in BALB/c nude mouse xenografted with human MDA-MB-231 cells assessed as drug tolerance at 23 mg/kg, ip administered on every 2 days for 28 days in presence of Olaparib; assay type: organism-based; settings: in vivo, 672 h, time 28 day
MDA-MB-231 [14] = assay: Induction of apoptosis in human MDA-MB-231 cells assessed as increase in cleaved PARP level at 5 uM incubated for 24 hrs by Western blot analysis; assay type: functional, cell-based
MDA-MB-231 [15] = assay: Antitumor activity against human MDA-MB-231 cells xenografted in BALB/c nude mouse at 23 mg/kg, ip administered on every 2 days for 28 days in presence of Olaparib relative to control; assay type: functional; settings: MDA-MB-231, 672 h, time 28 day, read-out: TGI
MDA-MB-231 [16] = assay: Antitumor activity against human MDA-MB-231 cells xenografted in BALB/c nude mouse assessed as increase in apoptotic cells at 23 mg/kg, ip administered on every 2 days for 28 days by H and E staining based analysis; assay type: functional, organism-based; settings: time 28.0 day
MDA-MB-231 [17] = assay: Induction of apoptosis in human MDA-MB-231 cells assessed as increase in cleaved caspase-9 level at 5 uM incubated for 24 hrs by Western blot analysis; assay type: functional, cell-based
MDA-MB-231 [18] = assay: Induction of apoptosis in human MDA-MB-231 cells assessed as decrease in Bcl-2 level at 5 uM incubated for 24 hrs by Western blot analysis; assay type: functional, cell-based
MDA-MB-231 [19] = assay: Effect on RAF expression in human MDA-MB-231 cells at 5 uM incubated for 24 hrs by Western blot analysis; assay type: functional, cell-based
MDA-MB-231 [20] = assay: Induction of apoptosis in human MDA-MB-231 cells assessed as increase in cleaved caspase-3 level at 5 uM incubated for 24 hrs by Western blot analysis; assay type: functional, cell-based
MDA-MB-231 [21] = assay: Induction of DNA damage in human MDA-MB-231 cells assessed as increase in gamma-H2AX level at 5 uM incubated for 24 hrs by immunofluorescence based analysis; assay type: functional, cell-based
MDA-MB-231 [22] = assay: Induction of ROS generation in human MDA-MB-231 cells at 5 uM incubated for 24 hrs by DCFH-DA staining based flow cytometric analysis; assay type: functional, cell-based
MDA-MB-231 [23] = assay: Effect on MEK phosphorylation in human MDA-MB-231 cells at 5 uM incubated for 24 hrs by Western blot analysis; assay type: functional, cell-based
[24] = Induction of depolarization of mitochondrial membrane potential in human MDA-MB-231 cells at 5 uM incubated for 24 hrs by JC-1 staining based flow cytometry relative to control; assay type: functional
MDA-MB-231 [25] = assay: Antitumor activity against human MDA-MB-231 cells xenografted in BALB/c nude mouse assessed as increase in necrotic cells at 23 mg/kg, ip administered on every 2 days for 28 days in presence of Olaparib by H and E staining based analysis; assay type: functional, organism-based; settings: time 28.0 day
MDA-MB-231 [26] = assay: Antitumor activity against human MDA-MB-231 cells xenografted in BALB/c nude mouse assessed as decrease in Ki-67 expression at 23 mg/kg, ip administered on every 2 days for 28 days in presence of Olaparib by H and E staining based analysis; assay type: functional, organism-based; settings: time 28.0 day
MDA-MB-231 [27] = assay: Induction of apoptosis in human MDA-MB-231 cells assessed as increase in Bax level at 5 uM incubated for 24 hrs by Western blot analysis; assay type: functional, cell-based
MDA-MB-231 [28] = assay: Induction of DNA damage in human MDA-MB-231 cells assessed as increase in olive tail moments at 5 uM incubated for 24 hrs by Comet assay; assay type: functional, cell-based
MDA-MB-231 [29] = assay: Antitumor activity against human MDA-MB-231 cells xenografted in BALB/c nude mouse assessed as increase in necrotic cells at 23 mg/kg, ip administered on every 2 days for 28 days by H and E staining based analysis; assay type: functional, organism-based; settings: time 28.0 day
MDA-MB-231 [30] = assay: […] activity in human MDA-MB-231 cells at 1 uM incubated for 24 hrs by wound healing assay; assay type: functional, cell-based
MDA-MB-231 [31] = assay: Effect on ERK1/2 phosphorylation in human MDA-MB-231 cells at 5 uM incubated for 24 hrs by Western blot analysis; assay type: functional, cell-based
MDA-MB-231 [32] = assay: Effect on total ERK1/2 in human MDA-MB-231 cells at 5 uM incubated for 24 hrs by Western blot analysis; assay type: functional, cell-based
MDA-MB-231 [33] = assay: Antitumor activity against human MDA-MB-231 cells xenografted in BALB/c nude mouse at 23 mg/kg, ip administered on every 2 days for 28 days relative to control; assay type: functional; settings: MDA-MB-231, 672 h, time 28 day, read-out: TGI

IC50 (HCC1937): 2010 nM
IC50 (MDA-MB-436): 1930 nM
IC50 (MDA-MB-468): 3640 nM
IC50 (MDA-MB-231 [2]): 2760 nM
SMILES: COc1cc(OC)c(/C=C/S(=O)(=O)Cc2ccc(OC)c(NC(=O)CCCC(=O)N3CCN(C(=O)c4cc(Cc5n[nH]c(=O)c6ccccc56)ccc4F)CC3)c2)c(OC)c1
IC50 at 72 h [1]: > 40000 nM

IC50 (HCC1937): 1080 nM
IC50 (MDA-MB-436): 2110 nM
IC50 (MDA-MB-468): 2330 nM
IC50 (MDA-MB-231 [2]): 1870 nM
SMILES: COc1cc(OC)c(/C=C/S(=O)(=O)Cc2ccc(OC)c(NCCCC(=O)O)c2)c(OC)c1
Activity [3]: Non-Toxic
Activity (MDA-MB-231 [4]): inactive
Activity (MDA-MB-231 [5]): Active
Activity (MDA-MB-231 [6]): Active
Activity (MDA-MB-231 [7]): 31.1%
Activity (MDA-MB-231 [8]): Active
Activity (MDA-MB-231 [9]): Active
Activity [10]: Non-Toxic
Activity (MDA-MB-231 [11]): Active
Activity [12]: Non-Toxic
Activity [13]: Non-Toxic
Activity (MDA-MB-231 [14]): Active
inhibition in vivo at 23 mg/kg (MDA-MB-231 [15]): 56.7%
Activity (MDA-MB-231 [16]): Active
Activity (MDA-MB-231 [17]): Active
IC50 at 72 h [1]: 30600 nM
Activity (MDA-MB-231 [18]): Active
Activity (MDA-MB-231 [19]): inactive
Activity (MDA-MB-231 [20]): Active
Activity (MDA-MB-231 [21]): Active
Activity (MDA-MB-231 [22]): Active
Activity (MDA-MB-231 [23]): Active
Activity [24]: 31.56%
Activity (MDA-MB-231 [25]): Active
Activity (MDA-MB-231 [26]): Active
Activity (MDA-MB-231 [27]): Active
Activity (MDA-MB-231 [28]): Active
Activity (MDA-MB-231 [29]): Active
Activity (MDA-MB-231 [30]): Active
Activity (MDA-MB-231 [31]): Active
Activity (MDA-MB-231 [32]): inactive
inhibition in vivo at 23 mg/kg (MDA-MB-231 [33]): 51.8%

IC50 (HCC1937): 1270 nM
IC50 (MDA-MB-436): 1550 nM
IC50 (MDA-MB-468): 2940 nM
IC50 (MDA-MB-231 [2]): 1190 nM
SMILES: COc1cc(OC)c(/C=C/S(=O)(=O)Cc2ccc(OC)c(NC(=O)CCC(=O)N3CCN(C(=O)c4cc(Cc5n[nH]c(=O)c6ccccc56)ccc4F)CC3)c2)c(OC)c1
IC50 at 72 h [1]: > 40000 nM

IC50 (HCC1937): 3920 nM
IC50 (MDA-MB-436): 4820 nM
IC50 (MDA-MB-468): 5760 nM
IC50 (MDA-MB-231 [2]): 3570 nM
SMILES: COc1cc(OC)c(/C=C/S(=O)(=O)Cc2ccc(OC)c(NC(=O)CCCC(=O)O)c2)c(OC)c1
IC50 at 72 h [1]: > 40000 nM

IC50 (HCC1937): 2170 nM
IC50 (MDA-MB-436): 2090 nM
IC50 (MDA-MB-468): 3190 nM
IC50 (MDA-MB-231 [2]): 2080 nM
SMILES: COc1cc(OC)c(/C=C/S(=O)(=O)Cc2ccc(OC)c(NC(=O)CCC(=O)O)c2)c(OC)c1
IC50 at 72 h [1]: > 40000 nM

IC50 (HCC1937): 1990 nM
IC50 (MDA-MB-436): 1440 nM
IC50 (MDA-MB-468): 1370 nM
IC50 (MDA-MB-231 [2]): 1280 nM
SMILES: COc1cc(OC)c(/C=C/S(=O)(=O)Cc2ccc(OC)c(NCC(=O)N3CCN(C(=O)c4cc(Cc5n[nH]c(=O)c6ccccc56)ccc4F)CC3)c2)c(OC)c1
IC50 at 72 h [1]: > 40000 nM
